Source: PubChem BioAssay (NCI)
Values joined by “and” are separate entries in the source; they are usually repeats but may differ in a detail not shown here. Identical values can stand only once.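 Where inhibition never reached the appropriate level, the endpoint shown equals the highest concentration tested. Otherwise, values were interpolated linearly from a five-concentration, 48-hour dose response in 96-well plates. Abbreviation: GI50, concentration required for 50% inhibition of growth. TGI marks complete inhibition of growth.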

Experiments:
Experiment in all cases: growth of human tumour cells (NCI), 48 h
[1] = system: SW-620 colon
[2] = system: NCI-H522 lung
[3] = system: SF-268 CNS
[4] = system: SK-MEL-5 melanoma
[5] = system: A498 renal
[6] = system: 786-0 renal
[7] = system: SF-539 CNS
[8] = system: SR leukemia
[9] = system: UACC-62 melanoma
[10] = system: BT-549 breast

Row | Structure (SMILES) | GI50 [1] | TGI [1] | GI50 [2] | TGI [2] | GI50 [3] | TGI [3] | GI50 [4] | TGI [4] | GI50 [5] | TGI [5] | GI50 [6] | TGI [6] | GI50 [7] | TGI [7] | GI50 [8] | TGI [8] | GI50 [9] | TGI [9] | GI50 [10] | TGI [10]
1 | CCN(CC)CC(C)(C)C(=O)/C=C/c1ccc(Cl)c(Cl)c1 | 1.76 µM | 4.21 µM | 1.71 µM | 3.2 µM | 1.56 µM | 3.22 µM | 1.84 µM | 3.29 µM | 1.63 µM | 3.55 µM | 1.62 µM | 3.04 µM | 1.85 µM | 3.54 µM | 1.75 µM | 8.91 µM | 1.66 µM | 3.59 µM | 1.72 µM | 3.12 µM
2 | N#CC(C(=O)/C(=N/Nc1nc(=S)[nH]n1N)C(C#N)c1ccccc1)c1ccccc1 (centres undefined) |  | > 100 µM |  | > 100 µM |  | > 100 µM |  | > 100 µM |  | > 100 µM |  | > 100 µM |  | > 100 µM |  | > 100 µM |  | > 100 µM |  | > 100 µM
3 | Cc1c(C2Nc3ccccc3C2C)[nH]c2ccccc12 (centres undefined) | 2.33 µM | 32.7 µM | 10.8 µM | 26.5 µM | 12.8 µM | 45.6 µM | 0.894 µM | 17.4 µM | 10.7 µM | 23.1 µM | 12 µM | 31.5 µM | 8.72 µM | 25.1 µM | 0.738 µM | 26.3 µM | 6.24 µM | 21.3 µM | 13.8 µM | 34.5 µM
4 | Nc1nc(Cl)cc(NCCO)n1 |  | > 100 µM |  | > 100 µM |  | > 100 µM |  | > 100 µM |  | > 100 µM |  | > 100 µM |  | > 100 µM |  | > 100 µM |  | > 100 µM |  | > 100 µM
5 | O=C(CN(C1CCCCC1)C1CCCCC1)Nc1ccc(S(=O)(=O)c2ccc(NC(=O)CN(C3CCCCC3)C3CCCCC3)cc2)cc1 | 0.228 µM | 0.65 µM | 0.394 µM | 1.24 µM | 0.337 µM | 1.6 µM | 0.395 µM | 1.65 µM | 11.4 µM | 27.9 µM | 0.941 µM | 2.39 µM | 0.37 µM | 1.46 µM | 0.224 µM | 1.52 µM | 0.595 µM | 2.05 µM | 0.506 µM | 1.91 µM
6 | CCN1C(=O)N(CC)C2C1NC(=S)N2/N=C/C=C/c1cccs1 (centres undefined) | 0.355 µM | > 100 µM | 0.214 µM | 1.69 µM | 1.47 µM | > 100 µM | 0.274 µM | 5.93 µM | 0.0855 µM | 0.539 µM | 0.615 µM | > 100 µM | 0.226 µM | 0.666 µM | 0.217 µM | > 38.9 µM | 0.45 µM | > 100 µM | 1.2 µM | 9.09 µM
7 | O=C(Nc1cccc(Cl)c1)c1cc2ccccc2cc1O | 3.14 µM and 3.1 µM | > 100 µM | 1.03 µM and 0.583 µM | 7.09 µM and 7.92 µM | 2.58 µM and 2.57 µM | > 100 µM | 1.24 µM and 0.661 µM | 4.15 µM and 2.5 µM | 0.742 µM and 1.08 µM | 4.34 µM and 4.64 µM | 3.6 µM and 3.12 µM | > 100 µM | 3.17 µM and 0.577 µM | 28.8 µM and > 100 µM | 3.9 µM and 3.79 µM | > 100 µM | 1.55 µM and 0.657 µM | > 100 µM | 2.42 µM and 1.84 µM | 7.66 µM and 9.29 µM
8 | COC(COC(=O)N1CCN(C=O)CC1)C1=C(N2CC2)C(=O)C(C)=C(N2CC2)C1=O (centres undefined) |  | 1.59 µM |  | 0.26 µM |  | 6.45 µM |  | 0.7 µM |  | 4.02 µM |  | 0.43 µM |  | 0.342 µM |  | < 0.011 µM |  | 1.35 µM |  | 1.97 µM
9 | Cc1ccc(Nc2nc(N)c(C(=O)c3ccc(C#N)cc3)s2)cc1 | 0.336 µM | > 100 µM | 0.221 µM |  | 2.59 µM | > 95.9 µM | 0.32 µM | 10.7 µM | 0.37 µM | 23.1 µM | 0.529 µM | > 49.8 µM | 0.312 µM | 2.85 µM | 0.0544 µM | > 100 µM | 0.416 µM | > 100 µM | 0.475 µM | > 60.9 µM
10 | COc1ccc(CNc2c3ccccc3nc3ccccc23)cc1OC | 1.69 µM | 10.1 µM | 1.55 µM | 4.15 µM | 3.21 µM | 13 µM | 1.87 µM | 3.64 µM | 1.97 µM | 4.8 µM | 2.78 µM | 12.1 µM | 2.82 µM | 11.3 µM | 1.34 µM | 7.2 µM | 2.42 µM | 7.46 µM | 3.15 µM | 12.2 µM
11 | COc1ccc(C2C(C#N)=C(N)OC3=C2COc2ccc(F)cc23)cc1OC (centres undefined) | 44.4 µM | > 100 µM | 54.3 µM | > 100 µM | 33.3 µM | > 100 µM | 12.9 µM | 44.9 µM | 28.3 µM | 59.1 µM | 25.6 µM | > 100 µM | 21.5 µM | 75.4 µM | 9.09 µM | > 100 µM | 15.1 µM | 44.3 µM | 28.9 µM | > 100 µM
